Columns and labels:
Assay in all cases: Enzyme Assay
[1] = biological target: PIK3CA (human) (UniProt P42336)
[2] = biological target: PIK3CD (Human) (UniProt O00329)
[3] = biological target: PIK3CB (Human) (UniProt P42338)
[4] = biological target: PIK3CG (human) (UniProt P48736)
Chain of PIK3CG (human) (P48736 whole entry, looked up): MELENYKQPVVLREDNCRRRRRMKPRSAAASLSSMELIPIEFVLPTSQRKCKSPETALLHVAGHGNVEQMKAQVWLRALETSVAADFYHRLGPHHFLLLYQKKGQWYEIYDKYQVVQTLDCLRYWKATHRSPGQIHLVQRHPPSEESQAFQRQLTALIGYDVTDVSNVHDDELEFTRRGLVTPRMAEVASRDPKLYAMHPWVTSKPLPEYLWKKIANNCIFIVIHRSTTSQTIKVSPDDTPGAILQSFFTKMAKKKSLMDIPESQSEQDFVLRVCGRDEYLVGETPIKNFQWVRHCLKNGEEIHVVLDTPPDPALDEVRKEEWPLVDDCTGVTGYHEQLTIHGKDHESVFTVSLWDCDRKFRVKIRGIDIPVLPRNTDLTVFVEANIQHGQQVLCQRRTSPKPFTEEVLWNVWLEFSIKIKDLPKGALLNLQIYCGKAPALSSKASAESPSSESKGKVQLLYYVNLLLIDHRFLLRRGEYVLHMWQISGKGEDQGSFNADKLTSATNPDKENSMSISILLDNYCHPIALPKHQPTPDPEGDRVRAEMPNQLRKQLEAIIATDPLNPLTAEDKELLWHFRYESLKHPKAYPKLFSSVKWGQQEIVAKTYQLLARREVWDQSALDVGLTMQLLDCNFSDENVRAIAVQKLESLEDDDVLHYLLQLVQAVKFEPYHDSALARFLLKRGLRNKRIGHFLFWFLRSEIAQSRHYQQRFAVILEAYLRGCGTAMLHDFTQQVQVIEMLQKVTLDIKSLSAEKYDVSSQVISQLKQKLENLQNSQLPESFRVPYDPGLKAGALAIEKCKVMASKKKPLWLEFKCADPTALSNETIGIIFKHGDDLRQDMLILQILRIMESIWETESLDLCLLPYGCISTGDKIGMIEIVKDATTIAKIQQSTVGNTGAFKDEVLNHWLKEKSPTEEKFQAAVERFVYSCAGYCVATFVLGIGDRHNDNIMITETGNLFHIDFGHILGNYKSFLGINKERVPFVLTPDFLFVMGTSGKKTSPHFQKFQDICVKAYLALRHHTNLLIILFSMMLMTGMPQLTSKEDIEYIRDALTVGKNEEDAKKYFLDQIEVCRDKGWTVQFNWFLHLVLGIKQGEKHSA

Chain of PIK3CB (Human) (P42338 whole entry, looked up): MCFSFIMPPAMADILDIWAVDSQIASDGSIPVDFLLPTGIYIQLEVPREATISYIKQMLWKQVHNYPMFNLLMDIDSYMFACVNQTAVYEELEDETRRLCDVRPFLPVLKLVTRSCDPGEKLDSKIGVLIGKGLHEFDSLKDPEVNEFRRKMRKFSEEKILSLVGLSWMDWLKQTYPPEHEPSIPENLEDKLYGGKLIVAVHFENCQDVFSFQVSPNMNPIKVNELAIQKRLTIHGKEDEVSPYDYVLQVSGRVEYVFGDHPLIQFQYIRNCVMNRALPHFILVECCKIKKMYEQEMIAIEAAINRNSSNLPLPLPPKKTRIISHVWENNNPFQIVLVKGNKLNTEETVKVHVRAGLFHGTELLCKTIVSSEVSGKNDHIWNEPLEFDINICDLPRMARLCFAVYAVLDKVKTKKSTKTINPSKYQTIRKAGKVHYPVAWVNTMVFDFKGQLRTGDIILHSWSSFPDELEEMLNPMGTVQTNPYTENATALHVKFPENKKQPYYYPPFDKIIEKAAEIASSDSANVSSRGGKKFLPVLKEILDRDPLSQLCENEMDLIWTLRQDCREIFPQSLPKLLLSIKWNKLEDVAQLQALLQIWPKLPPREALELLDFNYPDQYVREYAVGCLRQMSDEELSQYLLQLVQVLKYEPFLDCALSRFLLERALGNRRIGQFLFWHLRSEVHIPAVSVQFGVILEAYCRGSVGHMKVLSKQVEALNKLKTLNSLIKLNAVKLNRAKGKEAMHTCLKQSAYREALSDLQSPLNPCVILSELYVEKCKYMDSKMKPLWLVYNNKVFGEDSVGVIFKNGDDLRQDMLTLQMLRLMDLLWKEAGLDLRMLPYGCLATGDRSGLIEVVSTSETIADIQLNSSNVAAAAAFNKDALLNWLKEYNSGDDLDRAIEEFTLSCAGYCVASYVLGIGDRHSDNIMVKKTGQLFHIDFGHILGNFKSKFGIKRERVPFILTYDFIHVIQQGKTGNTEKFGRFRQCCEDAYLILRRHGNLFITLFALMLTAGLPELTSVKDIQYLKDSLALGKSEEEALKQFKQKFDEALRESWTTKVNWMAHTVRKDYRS
Chain of PIK3CD (Human) (O00329 whole entry, looked up): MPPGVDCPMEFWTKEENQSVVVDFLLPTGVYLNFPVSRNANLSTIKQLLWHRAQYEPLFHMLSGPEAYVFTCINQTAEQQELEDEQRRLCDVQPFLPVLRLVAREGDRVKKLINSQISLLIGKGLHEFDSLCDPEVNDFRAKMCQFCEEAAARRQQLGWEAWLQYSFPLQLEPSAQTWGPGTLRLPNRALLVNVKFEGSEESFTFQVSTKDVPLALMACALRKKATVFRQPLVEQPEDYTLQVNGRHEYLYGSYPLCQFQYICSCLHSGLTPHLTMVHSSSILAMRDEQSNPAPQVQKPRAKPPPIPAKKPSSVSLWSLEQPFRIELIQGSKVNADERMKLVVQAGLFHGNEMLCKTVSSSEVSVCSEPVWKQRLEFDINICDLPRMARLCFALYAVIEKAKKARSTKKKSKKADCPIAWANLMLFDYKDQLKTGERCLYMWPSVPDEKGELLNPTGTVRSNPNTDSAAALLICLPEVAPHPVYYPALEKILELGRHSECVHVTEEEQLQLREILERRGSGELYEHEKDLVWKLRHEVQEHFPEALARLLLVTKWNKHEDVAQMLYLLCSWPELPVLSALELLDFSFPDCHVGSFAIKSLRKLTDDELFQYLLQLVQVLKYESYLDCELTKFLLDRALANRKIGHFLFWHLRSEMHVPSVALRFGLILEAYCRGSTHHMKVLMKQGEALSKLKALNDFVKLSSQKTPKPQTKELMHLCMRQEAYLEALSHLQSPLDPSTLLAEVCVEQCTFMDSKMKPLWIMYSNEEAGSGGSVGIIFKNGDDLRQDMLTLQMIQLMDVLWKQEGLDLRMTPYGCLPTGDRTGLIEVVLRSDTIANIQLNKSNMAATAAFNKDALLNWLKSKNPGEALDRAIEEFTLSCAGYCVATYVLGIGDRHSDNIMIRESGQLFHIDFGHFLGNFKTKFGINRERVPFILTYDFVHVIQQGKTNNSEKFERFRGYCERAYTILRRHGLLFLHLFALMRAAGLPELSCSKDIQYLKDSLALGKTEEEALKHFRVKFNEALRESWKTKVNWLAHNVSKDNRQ
Chain of PIK3CA (human) (P42336 whole entry, looked up): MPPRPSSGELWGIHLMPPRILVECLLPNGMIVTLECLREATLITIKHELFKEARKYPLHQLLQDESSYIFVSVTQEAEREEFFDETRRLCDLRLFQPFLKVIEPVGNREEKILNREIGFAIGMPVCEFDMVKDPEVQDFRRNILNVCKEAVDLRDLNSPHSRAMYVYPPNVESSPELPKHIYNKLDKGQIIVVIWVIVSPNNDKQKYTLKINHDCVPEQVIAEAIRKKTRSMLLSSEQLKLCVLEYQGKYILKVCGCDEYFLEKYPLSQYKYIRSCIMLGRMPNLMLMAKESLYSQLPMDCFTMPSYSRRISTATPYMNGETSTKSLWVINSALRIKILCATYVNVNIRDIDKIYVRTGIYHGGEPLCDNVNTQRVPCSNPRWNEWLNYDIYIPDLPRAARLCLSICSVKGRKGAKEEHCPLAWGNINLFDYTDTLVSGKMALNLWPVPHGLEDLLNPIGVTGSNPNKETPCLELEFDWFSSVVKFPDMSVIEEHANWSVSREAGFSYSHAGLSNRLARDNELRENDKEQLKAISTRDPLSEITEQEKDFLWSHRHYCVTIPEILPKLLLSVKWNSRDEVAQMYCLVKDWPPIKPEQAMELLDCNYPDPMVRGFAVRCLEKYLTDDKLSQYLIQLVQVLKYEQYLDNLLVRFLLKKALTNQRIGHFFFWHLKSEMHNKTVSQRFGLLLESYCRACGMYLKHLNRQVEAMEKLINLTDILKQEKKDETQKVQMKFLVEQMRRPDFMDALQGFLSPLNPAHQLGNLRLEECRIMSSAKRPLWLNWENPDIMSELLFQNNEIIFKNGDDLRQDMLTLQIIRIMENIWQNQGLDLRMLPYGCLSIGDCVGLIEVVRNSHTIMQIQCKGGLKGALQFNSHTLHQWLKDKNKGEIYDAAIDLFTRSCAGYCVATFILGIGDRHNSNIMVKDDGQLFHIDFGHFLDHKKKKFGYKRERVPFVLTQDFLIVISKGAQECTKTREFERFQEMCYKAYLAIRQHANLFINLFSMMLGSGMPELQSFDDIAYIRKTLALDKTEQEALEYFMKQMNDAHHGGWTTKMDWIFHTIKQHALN

IC50 [1] [nM] | IC50 [2] [nM] | IC50 [3] [nM] | IC50 [4] [nM] | Compound
3690 | 3790 |  |  | O=c1cc(N2CC3CCC(C2)O3)nc2n1CC[C@@H](C(F)(F)F)N2Cc1ccc(Cl)s1
2900 | 1300 |  |  | C[C@@H]1COCCN1c1cc(=O)n2c(n1)N(Cc1ccc(Cl)s1)[C@H](C(F)(F)F)CC2
931 | 606 | 3500 | 2930 | O=c1cc(N2CCOCC2)nc2n1CCC1(CC1)N2C[C@@H](O)c1ccccc1
17 | 14 | 36 | 107 | O=c1cc(N2CCOCC2)nc2n1CC[C@@H](C(F)(F)F)N2CCc1ccccc1
1920 | 1170 | 4590 | 7350 | CC1(C)CCn2c(nc(N3CCOCC3)cc2=O)N1C[C@@H](O)c1ccccc1
 |  | 16 | 15 | O=c1cc(N2CCOCC2)nc2n1CC[C@@H](C(F)(F)F)N2C[C@@H](O)c1ccccc1
7430 | 4130 | > 10000 | > 10000 | CC(C)OCCN1c2nc(N3CCOCC3)cc(=O)n2CCC1(C)C
502 | 169 | 218 | 7170 | O=c1cc(N2CCOCC2)nc2n1CC[C@@H](C(F)(F)F)N2Cc1ccc(Cl)s1
88 | 27 | 34 | 628 | CC(C)OCCN1c2nc(N3CCOCC3)cc(=O)n2CC[C@@]1(C)C(F)(F)F
 | 211 | 233 | 1750 | CC(C)OCCN1c2nc(N3CCOCC3)cc(=O)n2CC[C@H]1C(F)(F)F
50 | 53 | 99 | 1600 | O=c1cc(N2CCOCC2)nc2n1CC[C@@H](C(F)(F)F)N2Cc1ccccc1
 |  | 998 | > 10000 | O=c1cc(N2CCOCC2)nc2n1CC[C@@H](C(F)(F)F)N2C[C@H](O)c1ccccc1
 | 61 | 93 | 1880 | O=c1cc(N2CCOCC2)nc2n1CC[C@@H](C(F)(F)F)N2c1ccccc1
 | 270 | 340 | 3510 | O=c1cc(N2CCOCC2)nc2n1CC[C@@H](C(F)(F)F)N2c1cc(F)cc(F)c1
1010 | 364 | 643 | 1820 | C[C@H]1COCCN1c1cc(=O)n2c(n1)N(Cc1ccc(Cl)s1)[C@H](C(F)(F)F)CC2

From the Kinase Knowledgebase extract (Sharma et al. 2016)
